This assay deals with T1, Muscarinic acetylcholine receptor M1 (Homo sapiens, UniProt P11229).
T1 sequence (P11229 whole entry): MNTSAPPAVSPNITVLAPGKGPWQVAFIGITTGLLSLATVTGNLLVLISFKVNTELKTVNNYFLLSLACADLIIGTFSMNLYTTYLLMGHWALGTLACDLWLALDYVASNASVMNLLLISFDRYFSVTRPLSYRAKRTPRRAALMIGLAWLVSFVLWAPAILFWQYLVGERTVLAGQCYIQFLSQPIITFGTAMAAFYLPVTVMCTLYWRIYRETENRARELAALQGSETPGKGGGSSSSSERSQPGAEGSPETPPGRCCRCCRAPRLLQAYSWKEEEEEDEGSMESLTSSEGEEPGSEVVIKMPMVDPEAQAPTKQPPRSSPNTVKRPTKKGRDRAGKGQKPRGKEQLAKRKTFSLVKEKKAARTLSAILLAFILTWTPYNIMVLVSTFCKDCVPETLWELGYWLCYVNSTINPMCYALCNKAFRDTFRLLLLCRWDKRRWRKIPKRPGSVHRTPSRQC
In words: Antagonist activity at human recombinant muscarinic receptor M1 expressed in CHO-K1 cells assessed as EC80 acetylcholine-induced calcium flux incubated for 30 mins. For orientation: Calcium assays in cells follow changes in intracellular calcium, usually with a dye or a luminescent sensor.

The IC50 is the midpoint of a concentration-inhibition curve. Turning to `Cc1cc(F)cnc1N1CCN(C(=O)CCS(=O)(=O)c2cccc3ncsc23)[C@@H](C)C1`, the IC50 was 79.4 nM.

Turning to `N#Cc1ccc(N2C3CCC2CN(C(=O)CCS(=O)(=O)c2cccc4ncsc24)C3)nc1`, the IC50 turned out to be 1.6 nM.

In the case of `N#Cc1cnccc1N1CCN(C(=O)CCCc2cccc3ncccc23)CC1`, the IC50 was determined as 1250 nM.

Regarding `Cc1cc(F)cnc1N1CCN(C(=O)COCc2cccc3ncsc23)[C@@H](C)C1`, the IC50 worked out at 3980 nM.

`N#Cc1ccc(N2CC3CCC2CN3C(=O)CCS(=O)(=O)c2cccc3ncsc23)nc1` (stereo not given): the IC50 turned out to be 32 nM.

These data come from BindingDB's records for doi:10.1021/acsmedchemlett.0c00626 (Pipeline Therapeutics, 2021).
